Where a name gives a salt, the structure may show the parent alone. Read-outs that look alike come from different tables or passages of the source.
Assays:
phenol red in the blood = assay: Uricosuric activity: retention of phenol red in the blood of rats; format: in vivo; conditions: Rattus norvegicus, read-out: Maximum Ratio measured (phenol red in blood, treated to non-treated)
Procedure: The uricosuric activity of the compounds has been shown by the method described by H. C. SCARBOROUGH and G. R. McKINNEY (J. Med. Pharm. Chem. (1962) 5 175) as well as by E. KREPPEL (Med. Exptl. (1959) 1 285); phenol red is administered intravenously to rats and the development of the concentration of this colourant in their blood is studied as a function of time. It is known that rats, which one hour before the beginning of the experiment have received an uricosuric agent, show, in comparison with non-treated animals, retention of phenol red in the blood.
The ratio is that of the concentrations of phenol red found in the blood of animals which have received the test compounds at the dose indicated at the specified time to the concentrations for non-treated animals.

[1] = Acute toxicity orally in mice (method of BLISS); conditions: mouse, in vivo
Procedure: The acute toxicity of the new compounds has been studied in mice orally, according to the method of BLISS (Quart. J. Pharm. Pharmacol. (1938) 2 192-216); with the exception of the compounds in Examples 3 and 13, which have an LD50 in the region of 700 mg/kg, all the other compounds have an LD50 above 1000 mg/kg.

[2] = Diuretic ability in mice (urine volume ratio treated/control); format: in vivo
Procedure: The diuretic ability of the novel compounds according to the invention has been studied in mice. It is expressed in Table III in the form of a ratio of the volume of urine for the treated animals received during 2 and 4 hours after administration (at the indicated dose) of the test compound to the volume measured under the same conditions for the control animals.

[3] = Solubility in aqueous medium (statement); format: physicochemical
[4] = 1 h, 60 minutes after injection of the colourant
[5] = 0.75 h, 45 minutes after injection of the colourant
[6] = 0.25 h, 15 minutes after injection of the colourant

O=C(O)COc1c(Br)cc(C(=O)c2cccs2)c2ccccc12 [Example 6]
response vs control in vivo at 50 mg/kg (phenol red in the blood; [4]): 116%

O=C(O)CCOc1ccc(C(=O)c2ccco2)c2ccccc12 [Example 14]
response vs control in vivo at 75 mg/kg (phenol red in the blood; 1 h, dose 75 mg/kg, 60 minutes after injection of the colourant): 80%

CCc1oc2ccccc2c1C(=O)c1cc(I)c(O)c(I)c1 [benziodarone, 2-ethyl-3-(4-hydroxy-3,5-diiodobenzoyl)-benzo[b]furane, reference compound]
LD50 ([1]; po): 1400 mg/kg | response vs control in vivo at 100 mg/kg (phenol red in the blood; [5]): 53%

O=C(O)COc1ccc(C(=O)c2cccs2)c2ccccc12 [Example 1, [4-(2-Thenoyl)-1-naphthyloxy]-acetic acid]
response vs control in vivo at 50 mg/kg (phenol red in the blood; [5]): 100% | response vs control in vivo at 100 mg/kg (phenol red in the blood; [4]): 121%

O=C(O)COc1ccc(C(=O)c2cc3ccccc3o2)c2ccccc12 [Example 12]
response vs control in vivo at 50 mg/kg (phenol red in the blood; [6]): 51%

O=C(O)COc1ccc(C(=NO)c2cccs2)c2ccccc12 [Example 2, [4-(2-Thienyl-hydroxyiminomethyl)-1-naphthyloxy]-acetic acid]
response vs control in vivo at 100 mg/kg (phenol red in the blood; [5]): 77%

Cc1ccc(C(=O)c2ccc(OCC(=O)O)c3ccccc23)s1 [Example 7]
response vs control in vivo at 100 mg/kg (phenol red in the blood; [6]): 44% | Diuretic Ability, 0 to 2 hours (ratio of urine volume treated/control) ([2]; 50 mg/kg p.o.): 2.01 | Diuretic Ability, 0 to 4 hours (ratio of urine volume treated/control) ([2]; 50 mg/kg p.o.): 1.70

O=C(O)CCOc1ccc(C(=O)c2cccs2)c2ccccc12 [Example 13]
LD50 ([1]; mice, oral, method of BLISS): ~700 mg/kg

O=C(O)COc1ccc(C(=O)c2ccoc2)c2ccccc12 [Example 3, [4-(3-Furoyl)-1-naphthlyloxy]-acetic acid]
LD50 ([1]; mice, oral, method of BLISS): ~700 mg/kg | Diuretic Ability, 0 to 2 hours (ratio of urine volume treated/control) ([2]; 20 mg/kg p.o.): 1.53 | Diuretic Ability, 0 to 4 hours (ratio of urine volume treated/control) ([2]; 20 mg/kg p.o.): 1.31 | Diuretic Ability, 0 to 2 hours (ratio of urine volume treated/control) ([2]; 50 mg/kg p.o.): 1.48 | Diuretic Ability, 0 to 4 hours (ratio of urine volume treated/control) ([2]; 50 mg/kg p.o.): 1.44

O=C(O)COc1ccc(C(=O)c2ccsc2)c2ccccc12 [Example 10]
response vs control in vivo at 100 mg/kg (phenol red in the blood; 0.5 h, 30 minutes after injection of the colourant): 53% | Diuretic Ability, 0 to 2 hours (ratio of urine volume treated/control) ([2]; 200 mg/kg p.o.): 1.38 | Diuretic Ability, 0 to 4 hours (ratio of urine volume treated/control) ([2]; 200 mg/kg p.o.): 1.77

O=C(O)COc1ccc(C(=O)c2cccs2)c2ccccc12 [tri(hydroxymethyl)methylamine salt]
solubility in aqueous medium [3]: particularly useful because of its solubility in aqueous medium
